This is an account of results in patent US8758782B2, “Excipient preservatives and pharmaceutical compositions comprised thereof” (Galderma Research & Development, priority 2007, dated 2014).

Assay [1] deals with Staphylococcus aureus, reference ATCC 6538. Kind of assay: Preservative Efficacy Test (PET), Staphylococcus aureus. Also noted: key to Gram+ bacterium, Staphylococcus aureus: −: No European pharmacopoeia criterion or USP criterion is met; +: for the coli: the USP criteria are met; ++: the European pharmacopoeia criteria A are met. Type of assay: cell-based. Conditions: additive in standard emulsion. The text has this:
(§1) A particular problem that must be solved by the invention is that of effectively protecting a pharmaceutical topical composition while at the same time meeting the criteria required by the European and U.S. pharmacopoeias. This is because, since the purpose of the pharmaceutical composition is to become a pharmaceutical product with a marketing authorization, it is imperative for the composition according to the invention to meet these criteria. In order to verify this point and to determine the antimicrobial action of the various mixtures of excipients according to the invention, a test protocol, known as the PET (Preservative Efficacy Test), exists. The PET comprises artificially inoculating the compositions with a known number of microorganisms, and then determining the decrease in the latter in the compositions tested, at given times. The protocol of this test is set up in order to abide by the recommendations of the European and U.S. pharmacopoeias. […] The mixture of excipients as preservatives, described herein, should therefore meet the criteria of these pharmacopoeias in the PET. This test comprises artificially contaminating aliquots of formulation by means of a calibrated inoculum of specific microorganisms and incubating the same at precise temperatures. Samples are taken from the contaminated aliquots at given time intervals in order to count the microorganisms. Bacteria: • Pseudomonas aeruginosa, reference ATCC 9027; NCIMB 8626; CIP 82.118. • Staphylococcus aureus, reference ATCC 6538; NCTC 10788; NCIMB 9518; CIP 4.83. Bacteria: • Escherichia coli, reference ATCC 8739. • Pseudomonas aeruginosa, reference ATCC 9027. • Staphylococcus aureus, reference ATCC 6538.

The subject of assay [2] is Aspergillus niger, reference ATCC 16404. Description: Preservative Efficacy Test (PET), Aspergillus niger. Also noted: key to Moulds, Aspergillus Niger: −: No European pharmacopoeia criterion or USP criterion is met; +: for the coli: the USP criteria are met; ++: the European pharmacopoeia criteria A are met. Conditions: for Moulds, Aspergillus Niger: additive in standard emulsion at its given % (EDTA 0.15, citric acid 2, sodium ascorbate 2, tocopherol 0.05, BHT 1, propyl gallate 0.1, ascorbyl palmitate 1). Type of assay: cell-based. The text has this: (§2) A particular problem that must be solved by the invention is that of effectively protecting a pharmaceutical topical composition while at the same time meeting the criteria required by the European and U.S. pharmacopoeias. This is because, since the purpose of the pharmaceutical composition is to become a pharmaceutical product with a marketing authorization, it is imperative for the composition according to the invention to meet these criteria. In order to verify this point and to determine the antimicrobial action of the various mixtures of excipients according to the invention, a test protocol, known as the PET (Preservative Efficacy Test), exists. The PET comprises artificially inoculating the compositions with a known number of microorganisms, and then determining the decrease in the latter in the compositions tested, at given times. The protocol of this test is set up in order to abide by the recommendations of the European and U.S. pharmacopoeias. […] The mixture of excipients as preservatives, described herein, should therefore meet the criteria of these pharmacopoeias in the PET. This test comprises artificially contaminating aliquots of formulation by means of a calibrated inoculum of specific microorganisms and incubating the same at precise temperatures. Samples are taken from the contaminated aliquots at given time intervals in order to count the microorganisms. Fungi: • Candida albicans, reference ATCC 10231; NCPF 3179; IP 48.72. • Aspergillus niger, reference ATCC 16404; IMI 149007; IP 1431.83. Fungi: • Candida albicans, reference ATCC 10231. • Aspergillus niger, reference ATCC 16404.

Assay [3] deals with Candida albicans, reference ATCC 10231. Description: Preservative Efficacy Test (PET), Candida albicans. Type of assay: cell-based. Further details: key to Yeast, Candida albicans: −: No European pharmacopoeia criterion or USP criterion is met; +: for the coli: the USP criteria are met; ++: the European pharmacopoeia criteria A are met. Conditions: additive in standard emulsion.
Text: as §2

Assay [4] relates to Escherichia coli, reference ATCC 8739. Description: Preservative Efficacy Test (PET), Escherichia coli. Type of assay: cell-based. Also noted: key to Gram− bacterium, Esoherichia coli: −: No European pharmacopoeia criterion or USP criterion is met; +: for the coli: the USP criteria are met; ++: the European pharmacopoeia criteria A are met. Conditions: additive in standard emulsion.
Text: as §1, with “•” for “• Pseudomonas aeruginosa, reference ATCC 9027; NCIMB 8626; CIP 82.118. • Staphylococcus aureus, reference ATCC 6538; NCTC 10788; NCIMB 9518; CIP 4.83. Bacteria: •”

For assay [5], the system named is Pseudomonas aeruginosa, reference ATCC 9027. Description: Preservative Efficacy Test (PET), Pseudomonas aeruginosa. The format is cell-based. Conditions: additive in standard emulsion. Also noted: key to Gram− bacterium, Pseudomonas aeruginosa: −: No European pharmacopoeia criterion or USP criterion is met; +: for the coli: the USP criteria are met; ++: the European pharmacopoeia criteria A are met.
Text: as §1

The subject of a further assay is Candida albicans. Conditions: cited from earlier work.
The subject of another assay is Aspergillus niger. Conditions: cited from earlier work.
Assay [6] has as its system Bacteria and fungi (Escherichia coli, Pseudomonas aeruginosa, Staphylococcus aureus, Candida albicans, Aspergillus niger). Kind of assay: PET, overall compliance with European and U.S. pharmacopoeia criteria. Conditions: for Efficacy on the microorganisms as a whole / spectrum of efficacy: additive in standard emulsion; for Solutions providing antimicrobial protection, Pharma Europe: EtOH concentration / Solutions providing antimicrobial protection, Pharma USP: EtOH concentration: ethanol combined with the humectant; for Solutions providing antimicrobial protection, Pharma Europe: EtOH concentration / Solutions providing antimicrobial protection, Pharma USP: EtOH concentration / Solutions providing antimicrobial protection, Pharma Europe: humectant concentration / Solutions providing antimicrobial protection, Pharma USP: humectant concentration: lotion-type aqueous solution, no preservative; for Solutions providing antimicrobial protection, Pharma Europe: humectant concentration / Solutions providing antimicrobial protection, Pharma USP: humectant concentration: humectant combined with ethanol; for Ethanol concentration to meet the USP criteria: reduced from 15%; for Ethanol concentration to meet European pharmacopoeia criteria A: reduced from 25%; for USP criteria / Bacteria: European pharmacopoeia criteria: 30% by mass in an aqueous solution, without ethanol; for Bacteria: European pharmacopoeia criteria: bacteria only. Type of assay: cell-based. From the text:
A particular problem that must be solved by the invention is that of effectively protecting a pharmaceutical topical composition while at the same time meeting the criteria required by the European and U.S. pharmacopoeias. This is because, since the purpose of the pharmaceutical composition is to become a pharmaceutical product with a marketing authorization, it is imperative for the composition according to the invention to meet these criteria. In order to verify this point and to determine the antimicrobial action of the various mixtures of excipients according to the invention, a test protocol, known as the PET (Preservative Efficacy Test), exists. The PET comprises artificially inoculating the compositions with a known number of microorganisms, and then determining the decrease in the latter in the compositions tested, at given times. The protocol of this test is set up in order to abide by the recommendations of the European and U.S. pharmacopoeias. The test and also the recommendations of the European and U.S. pharmacopoeias are described in Example 1 to follow. The mixture of excipients as preservatives, described herein, should therefore meet the criteria of these pharmacopoeias in the PET.
This test comprises artificially contaminating aliquots of formulation by means of a calibrated inoculum of specific microorganisms and incubating the same at precise temperatures. Samples are taken from the contaminated aliquots at given time intervals in order to count the microorganisms.
It also makes it obligatory to study the reductions in population of the microorganisms introduced into the formulation according to two acceptability criteria.
Since the A criteria are the most strict, it are […] generally required that they be met.
In justified cases, when the A criteria cannot be complied with, for example owing to an increase in the risk of adverse reactions, the B criteria, which are less drastic, apply.
NI (Non-Increase) signifies that there must not be an increase in the number of microorganisms.
It imposes logarithmic reductions in the population of microorganisms which are different than that of the European pharmacopoeia.

As for `O=C1O[C@H]([C@@H](O)CO)C([O-])=C1O.[Na+]` [Sodium ascorbate], in assay [1], the “Action on Staphylococcus aureus, criteria met” value is listed as “meeting European pharmacopoeia criteria A” and the “Gram+ bacterium, Staphylococcus aureus” value is listed as “++”. The “Moulds, Aspergillus Niger” value in assay [2] is given as “−”. Also, the “Yeast, Candida albicans” value in assay [3] is “−”. In addition, in assay [4], the “Action on Escherichia coli, criteria met” value is “meeting the USP criteria” and the “Gram− bacterium, Esoherichia coli” value is reported as “+”. The “Gram− bacterium, Pseudomonas aeruginosa” value in assay [5] is on record as “−”.

Regarding `COC(=O)c1ccc(O)cc1` [methylparaben], the “Concentration that makes it possible to inhibit Candida albicans” value in the assay on Candida albicans is 1000 ppm. The “Concentration that makes it possible to inhibit Aspergillus niger” value in the assay on Aspergillus niger is on record as 1000 ppm.

Take `CCCCCCCCCCCCCCCC(=O)OC[C@H](O)[C@H]1OC(=O)C(O)=C1O` [Ascorbyl palmitate]: the “Efficacy on the microorganisms as a whole / spectrum of efficacy” value in assay [6] is recorded as “bactericidal”. Further, the “Gram+ bacterium, Staphylococcus aureus” value in assay [1] is “++”. For the same compound, the “Moulds, Aspergillus Niger” value in assay [2] is on record as “−”. For the same compound, the “Yeast, Candida albicans” value in assay [3] is listed as “−”. Moreover, the “Gram− bacterium, Esoherichia coli” value in assay [4] is listed as “+”. For the same compound, in assay [5], the “Gram− bacterium, Pseudomonas aeruginosa” value is on record as “++”.

With Polyethylene Glycol 400 [PEG 400], in assay [6], the “Solutions providing antimicrobial protection, Pharma Europe: EtOH concentration” value is “starting from 10%”; the “Solutions providing antimicrobial protection, Pharma USP: EtOH concentration” value is recorded as “starting from 5% EtOH”; the “Solutions providing antimicrobial protection, Pharma Europe: humectant concentration” value was “starting from 20%”; the “Solutions providing antimicrobial protection, Pharma USP: humectant concentration” value is “starting from 20% PEG”. In assay [6] (with 20% by mass of PEG 400), the “Ethanol concentration to meet the USP criteria” value is on record as 5% and the “Ethanol concentration to meet European pharmacopoeia criteria A” value was 10%.

In the case of `CCCOC(=O)c1cc(O)c(O)c(O)c1` [Propyl gallate], the “Gram+ bacterium, Staphylococcus aureus” value in assay [1] is on record as “−”. In assay [2], the “Moulds, Aspergillus Niger” value was “−”. For the same compound, the “Yeast, Candida albicans” value in assay [3] is given as “−”. Further, in assay [4], the “Gram− bacterium, Esoherichia coli” value is given as “−”. For the same compound, in assay [5], the “Gram− bacterium, Pseudomonas aeruginosa” value is given as “++” and the “Inhibition of Pseudomonas aeruginosa, criteria met” value is on record as “meeting European pharmacopoeia criteria A”.

In the case of Tocopherol, the “Efficacy on the microorganisms as a whole / spectrum of efficacy” value in assay [6] is “do not have a significant efficacy”. The “Gram+ bacterium, Staphylococcus aureus” value in assay [1] is “−”. The “Moulds, Aspergillus Niger” value in assay [2] was “−”. Also, the “Yeast, Candida albicans” value in assay [3] is recorded as “−”. Besides, in assay [4], the “Gram− bacterium, Esoherichia coli” value was “−”. The “Gram− bacterium, Pseudomonas aeruginosa” value in assay [5] is reported as “−”.

`Cc1cc(C(C)(C)C)c(O)c(C(C)(C)C)c1` [BHT, butylhydroxytoluene]: the “Gram+ bacterium, Staphylococcus aureus” value in assay [1] is recorded as “−”. For the same compound, the “Moulds, Aspergillus Niger” value in assay [2] is “−”. Further, the “Yeast, Candida albicans” value in assay [3] is “−”. Also, the “Gram− bacterium, Esoherichia coli” value in assay [4] is recorded as “−”. The “Gram− bacterium, Pseudomonas aeruginosa” value in assay [5] is recorded as “−”.

Take `O.O.O=C([O-])CN(CCN(CC(=O)O)CC(=O)O)CC(=O)[O-].[Na+].[Na+]` [EDTA, Disodium EDTA Dihydrate]: in assay [1], the “Gram+ bacterium, Staphylococcus aureus” value is “−”. Besides, the “Moulds, Aspergillus Niger” value in assay [2] is recorded as “−”. In assay [3], the “Yeast, Candida albicans” value was “−”. The “Gram− bacterium, Esoherichia coli” value in assay [4] is on record as “−”. Further, in assay [5], the “Gram− bacterium, Pseudomonas aeruginosa” value is listed as “++” and the “Inhibition of Pseudomonas aeruginosa, criteria met” value was “meeting European pharmacopoeia criteria A”.

For `CC(O)CO` (stereo not drawn) [PG, Propylene glycol], in assay [6], the USP criteria entry was “makes it possible to meet”; the “Bacteria: European pharmacopoeia criteria” value is “meeting European pharmacopoeia criteria A”; the “Solutions providing antimicrobial protection, Pharma Europe: EtOH concentration” value is listed as “starting from 15%”; the “Solutions providing antimicrobial protection, Pharma USP: EtOH concentration” value is given as “starting from 0% EtOH”. Further, in assay [6], the “Solutions providing antimicrobial protection, Pharma Europe: humectant concentration” value is listed as “starting from 5% PG” and the “Solutions providing antimicrobial protection, Pharma USP: humectant concentration” value is given as “starting from 30% PG”. In addition, the “Ethanol concentration to meet European pharmacopoeia criteria A” value in assay [6] (with 10% of PG) is 15%. Besides, the “Action on fungi, in particular Aspergillus niger” value in assay [2] (humectant alone, without ethanol) is reported as “does not ensure a decrease in these microorganisms”.

As for `OCC(O)CO` [glycerol], in assay [6], the USP criteria result was “does not meet”; the “Bacteria: European pharmacopoeia criteria” value is on record as “meet only European pharmacopoeia criteria B for bacteria”; the “Solutions providing antimicrobial protection, Pharma Europe: EtOH concentration” value is recorded as “starting from 15%”; the “Solutions providing antimicrobial protection, Pharma USP: EtOH concentration” value was “starting from 5% EtOH”. For the same compound, in assay [6], the “Solutions providing antimicrobial protection, Pharma Europe: humectant concentration” value is “starting from 5%” and the “Solutions providing antimicrobial protection, Pharma USP: humectant concentration” value was “starting from 10%”. In addition, the “Ethanol concentration to meet European pharmacopoeia criteria A” value in assay [6] (with 5% by mass of glycerol) was found to be 15%. Also, in assay [6] (with 10% by mass of glycerol), the “Ethanol concentration to meet the USP criteria” value was determined as 5%.
